Experimental data reported in patent US8865704B2, “Wnt pathway antagonists” (Siena Biotech S.p.A., priority 2009, dated 2014).

System: Wnt/β-catenin pathway
Assay: Wnt reporter assay (TCF-Luciferase, Firefly) in DBTRG-05MG cells
Format: cell-based
Conditions: Homo sapiens, 24 hours after compound addition
Experimental: TCF-Luciferase: Three copies of a 4×TCF responsive elements were cloned into the pcDNA3.1/Zeo(+) vector (Invitrogen) after deletion of the constitutive CMV promoter and the insertion of the Firefly Luciferase from Promega (phFL-TK) to measure the activity of the Wnt/β-catenin pathway. The resulting plasmid was sequenced for quality control.
Cells were grown in 20 μg/ml Zeocin and 20 μg/ml Zeocin plus 30 μg/ml Hygromicin respectively. The cells were plated at a density of 6500 cells/well in poly-D-lysine pre-treated 96 well-plates.
IC50 determination: 36 hours after plating cells were incubated with 8-points (60 μM-40 μM-20 μM-10 μM-5 μM-1.66 μM-0.55 μM-0.185 μM) dilutions compound (0.6% DMSO (v/v)). Each compound was tested in triplicate in single plate. Luciferase detection was done with Dual-Luciferase Reporter Assay System (Promega). 24 hours after compound addition, media was removed and 30 μl of 1× lysis buffer was added to each well for 30 minutes. To each well 45 μl of Dual-Glo Luciferase reagent (Promega) were added and after 1 second delay Luciferase was detected for 1 second using Mithras LB940 instrument. After Firefly luciferase quantification 45 μl of Dual Stop & Glo reagent (Promega) were added to each well and Firefly Renilla was detected using the same parameters described before.
Data were expressed as % of control for Firefly and Renilla luciferase independently; values were calculated using XLFit version 4.2, with a four parameters sigmoid function (XLFit model 205).

Compound | IC50
COc1ccccc1NC(=O)[C@H]1CC[C@H](CN2CCc3ccccc3NC2=O)CC1 [Example 118] | 0.3 to 30 µM
COc1ccc2c(c1)c(=O)n(C[C@H]1CC[C@H](C(=O)N3CCN(c4nccs4)CC3)CC1)c(=O)n2C [Example 121] | 0.3 to 30 µM
COC(=O)N1CCN(C(=O)[C@H]2CC[C@H](Cn3c(=O)n(C)c4ccc(OC)nc43)CC2)CC1 [Example 205] | 0.3 to 30 µM
COc1ccc2c(c1)c(=O)n(C[C@H]1CC[C@H](C(=O)N3CCN(C(=O)c4ccncn4)CC3)CC1)c(=O)n2C [Example 147] | 0.3 to 30 µM
CC(C)C(=O)N1CCN(C(=O)[C@H]2CC[C@H](CN3C(=O)CC(c4ccccc4)NC3=O)CC2)CC1 (stereo partly drawn) [Example 6, 3-[trans-4-(4-Isobutyryl-piperazine-1-carbonyl)-cyclohexylmethyl]-6-phenyl-dihydro-pyrimidine-2,4-dione] | 0.3 to 30 µM
O=C1Nc2ccccc2CCN1C[C@H]1CC[C@H](C(=O)N2CCN(c3ccccn3)CC2)CC1 [Example 16, 3-[trans-4-(4-pyridin-2-yl-piperazine-1-carbonyl)-cyclohexylmethyl]-1,3,4,5-tetrahydro-benzo[d][1,3]diazepin-2-one] | 0.3 to 30 µM
CC(c1ccccc1)N1CCN(C(=O)C2CCC(Cn3c(=O)[nH]c4ccccc4c3=O)CC2)CC1 (stereo not shown) [Example 50] | 0.3 to 30 µM
COc1cccc2c1CN(C[C@H]1CC[C@H](C(=O)N3CCN(c4nccs4)CC3)CC1)C(=O)N2 [Example 178] | 0.3 to 30 µM
COc1ccc2c(c1)c(=O)n(C[C@H]1CC[C@H](C(=O)Nc3cnc4ccccn34)CC1)c(=O)n2C [Example 190] | 0.3 to 30 µM
CCOc1ccc2c(c1)c(=O)n(C[C@H]1CC[C@H](C(=O)N3CCN(C(C)=O)CC3)CC1)c(=O)n2C [Example 200] | 0.3 to 30 µM
O=C(C1CCC(Cn2cnc3ccccc3c2=O)CC1)N1CCN(Cc2ccccc2)CC1 (stereo not shown) [Example 19] | 0.3 to 30 µM
COC(=O)N1CCN(C(=O)[C@H]2CC[C@H](Cn3c(=O)n(C)c4ccc(C)nc43)CC2)CC1 [Example 203] | 0.3 to 30 µM
O=C(C1CCC(Cn2c(=O)[nH]c3ccccc3c2=O)CC1)N1CCOCC1 (stereo not shown) [Example 22] | 0.3 to 30 µM
COc1ccc2c(c1)c(=O)n(C[C@H]1CC[C@H](C(=O)N3CCN(c4ccncc4)CC3)CC1)c(=O)n2C [Example 195] | 0.3 to 30 µM
COCC(=O)N1CCN(C(=O)[C@H]2CC[C@H](Cn3c(=O)c4cc(OC)ccc4n(C)c3=O)CC2)[C@@H](C)C1 [Example 145] | 0.3 to 30 µM
COc1ccc2[nH]c(=O)n(C[C@H]3CC[C@H](C(=O)N4CCN(C(=O)c5ccncn5)CC4)CC3)c(=O)c2c1 [Example 117] | 0.3 to 30 µM
COCC(=O)N1CCN(C(=O)[C@H]2CC[C@H](Cn3c(=O)[nH]c4ccc(OC)cc4c3=O)CC2)C[C@@H]1C [Example 159] | 0.3 to 30 µM
COc1ccc2[nH]c(=O)n(C[C@H]3CC[C@H](C(=O)N4CCN(c5cnccn5)CC4)CC3)c(=O)c2c1 [Example 91] | 0.3 to 30 µM

Compound | IC50
COc1ccc2[nH]c(=O)n(C[C@H]3CC[C@H](C(=O)N4CCN(c5ncccn5)CC4)CC3)c(=O)c2c1 [Example 98] | 0.3 to 30 µM
CN1C(=O)CN(C[C@H]2CC[C@H](C(=O)N3CCN(c4ccccn4)CC3)CC2)C(=O)c2ccccc21 [Example 14, 1-Methyl-4-[trans-4-(4-pyridin-2-yl-piperazine-1-carbonyl)-cyclohexylmethyl]-3,4-dihydro-1H-benzo[e][1,4]diazepine-2,5-dione] | 0.3 to 30 µM
CCOc1ccc2c(c1)c(=O)n(C[C@H]1CC[C@H](C(=O)N3CCN(C(=O)COC)CC3)CC1)c(=O)n2C [Example 198] | 0.3 to 30 µM
COc1ccc2c(c1)c(=O)n(C[C@H]1CC[C@H](C(=O)N3CCN(C(C)=O)CC3)CC1)c(=O)n2C(F)F [Example 179] | 0.3 to 30 µM
CCOc1ccc2c(c1)c(=O)n(C[C@H]1CC[C@H](C(=O)Nc3ccncc3)CC1)c(=O)n2C [Example 196] | 0.3 to 30 µM
COc1ccccc1NC(=O)[C@H]1CC[C@H](CN2C(=O)Cc3ccccc3N(C)C2=O)CC1 [Example 119] | 0.3 to 30 µM
COc1ccc2[nH]c(=O)n(C[C@H]3CC[C@H](C(=O)N4CCOCC4)CC3)c(=O)c2c1 [Example 89] | 0.3 to 30 µM
Cc1ccc(CN2CCN(C(=O)[C@H]3CC[C@H](Cn4c(=O)[nH]c5ccccc5c4=O)CC3)CC2)o1 [Example 40] | 0.3 to 30 µM
CN1C(=O)N(C[C@H]2CC[C@H](C(=O)N3CCN(c4ccccc4)CC3)CC2)Cc2ccccc21 [Example 46] | 0.3 to 30 µM
O=c1[nH]c2ccccc2c(=O)n1C[C@H]1CC[C@H](C(=O)N2CCN(Cc3ccccc3)CC2)CC1 [Example 24] | 0.3 to 30 µM
Cn1c(=O)n(C[C@H]2CC[C@H](C(=O)N3CCOCC3)CC2)c2c(Cl)cccc21 [Example 164] | 0.3 to 30 µM
CCOc1ccc2c(c1)c(=O)n(C[C@H]1CC[C@H](C(=O)N3CCN(C(=O)c4cncn4C)CC3)CC1)c(=O)n2C [Example 206] | 0.3 to 30 µM
COCC(=O)N1CCN(C(=O)[C@H]2CC[C@H](Cn3c(=O)n(C)c4ccc(OC)nc43)CC2)CC1 [Example 208] | 0.3 to 30 µM
COc1ccc2c(c1)c(=O)n(C[C@H]1CC[C@H](C(=O)N3CCN(C(=O)C4CC4)[C@@H](C)C3)CC1)c(=O)n2C [Example 156] | 0.3 to 30 µM
CCN1CCN(C(=O)[C@H]2CC[C@H](Cn3c(=O)[nH]c4ccc(OC)cc4c3=O)CC2)CC1=O [Example 87] | 0.3 to 30 µM
COCC(=O)N1CCN(C(=O)[C@H]2CC[C@H](Cn3c(=O)c4cc(OC)ccc4n(C)c3=O)CC2)[C@H](C)C1 [Example 144] | 0.3 to 30 µM
COc1ccc2[nH]c(=O)n(C[C@H]3CC[C@H](C(=O)Nc4ccncc4)CC3)c(=O)c2c1 [Example 113] | 0.3 to 30 µM

The next lines start with the values.

IC50 | Compound
0.3 to 30 µM | COc1ccc2[nH]c(=O)n(C[C@H]3CC[C@H](C(=O)N4CCN(C(=O)c5cncn5C)CC4)CC3)c(=O)c2c1 [Example 115]
0.3 to 30 µM | COc1cccc2[nH]c(=O)n(C[C@H]3CC[C@H](C(=O)N4CCN(C(=O)C(C)C)CC4)CC3)c(=O)c12 [Example 55]
0.3 to 30 µM | COc1ccc2[nH]c(=O)n(C[C@H]3CC[C@H](C(=O)N4CCN(C(=O)C5CC5)CC4)CC3)c2n1 [Example 158]
0.3 to 30 µM | CCOc1ccc2c(c1)c(=O)n(C[C@H]1CC[C@H](C(=O)N3CCN(C(=O)C4CCCC4)CC3)CC1)c(=O)n2C [Example 199]
0.3 to 30 µM | Cc1ccc2[nH]c(=O)n(C[C@H]3CC[C@H](C(=O)N4CCN(C(=O)C5CC5)CC4)CC3)c2c1 [Example 95]
0.3 to 30 µM | COC(=O)N1CCN(C(=O)[C@H]2CC[C@H](Cn3c(=O)n(C)c4ccc(OC)cc43)CC2)CC1 [Example 182]
0.3 to 30 µM | COc1ccc2[nH]c(=O)n(C[C@H]3CC[C@H](C(=O)N4CCN(C(=O)C(C)(C)F)CC4)CC3)c(=O)c2c1 [Example 96]
0.3 to 30 µM | COc1ccc2c(n1)n(C[C@H]1CC[C@H](C(=O)N3CCN(C(=O)C4CC4)CC3)CC1)c(=O)n2C [Example 166]
0.3 to 30 µM | COc1ccc2[nH]c(=O)n(C[C@H]3CC[C@H](C(=O)N4CCN(C(=O)C5CC5(F)F)CC4)CC3)c(=O)c2c1 (stereo partly shown) [Example 97]
0.3 to 30 µM | CCC(C)OC(=O)N1CCN(C(=O)[C@H]2CC[C@H](Cn3c(=O)[nH]c4ccc(OC)cc4c3=O)CC2)CC1 (stereo partly shown) [Example 104]
0.3 to 30 µM | COCC(=O)N1CCN(C(=O)[C@H]2CC[C@H](Cn3c(=O)[nH]c4ccc(Cl)cc4c3=O)CC2)CC1 [Example 62]
0.3 to 30 µM | O=C(C1CC1)N1CCN(C(=O)[C@H]2CC[C@H](Cn3c(=O)[nH]c4ccc(Cl)cc43)CC2)CC1 [Example 11, 6-Chloro-1-[trans-4-(4-cyclopropanecarbonyl-piperazine-1-carbonyl)cyclohexylmethyl]-1,3-dihydro-benzoimidazol-2-one]
0.3 to 30 µM | CC(C)(F)C(=O)N1CCN(C(=O)[C@H]2CC[C@H](Cn3c(=O)[nH]c4ccccc4c3=O)CC2)CC1 [Example 107]
0.3 to 30 µM | Cn1c(=O)n(C[C@H]2CC[C@H](C(=O)N3CCN(C(=O)C4CC4)CC3)CC2)c2cc(C(F)(F)F)ccc21 [Example 163]
0.3 to 30 µM | O=C(C1CCCC1)N1CCN(C(=O)[C@H]2CC[C@H](CN3Cc4ccccc4NC3=O)CC2)CC1 [Example 72]
0.3 to 30 µM | CC(C)C(=O)N1CCN(C(=O)[C@H]2CC[C@H](Cn3c(=O)[nH]c4cccc(Cl)c4c3=O)CC2)CC1 [Example 51]
0.3 to 30 µM | CC(=O)N1CCN(C(=O)[C@H]2CC[C@H](Cn3c(=O)[nH]c4ccccc4c3=O)CC2)CC1 [Example 33]
0.3 to 30 µM | Cc1ccc2[nH]c(=O)n(C[C@H]3CC[C@H](C(=O)N4CCN(C(=O)C(C)C)CC4)CC3)c(=O)c2c1 [Example 143]
0.3 to 30 µM | COc1ccc2[nH]c(=O)n(C[C@H]3CC[C@H](C(=O)N4CCN(C(=O)C5CCCC5)CC4)CC3)c(=O)c2c1 [Example 65]
0.3 to 30 µM | CC(C)C(=O)N1CCN(C(=O)[C@H]2CC[C@H](Cn3c(=O)[nH]c4cccc(F)c4c3=O)CC2)CC1 [Example 54]
0.3 to 30 µM | CC(C)(C)NC(=O)N1CCN(C(=O)[C@H]2CC[C@H](Cn3c(=O)[nH]c4ccccc4c3=O)CC2)CC1 [Example 34]
0.3 to 30 µM | O=C(C1CC1)N1CCN(C(=O)[C@H]2CC[C@H](Cn3c(=O)[nH]c4cc(C(F)(F)F)ccc43)CC2)CC1 [Example 112]
0.3 to 30 µM | COc1ccc2[nH]c(=O)n(C[C@H]3CC[C@H](C(=O)N4CCN(C(=O)C5CC5)C[C@H]4C)CC3)c(=O)c2c1 [Example 126]
